Source: patent US10774083B2, “Heterocyclic amide compound” (TAKEDA PHARMACEUTICAL COMPANY LIMITED, priority 2016, dated 2020)

target: T1, human PRS protein (His-Avi-hEPRS (998-1512)) (Homo sapiens, UniProt P07814); assay: PRS inhibitory activity ([32P]pyrophosphate exchange enzyme assay); assay type: biochemical; settings: 300 nM test compound; 0.3 µM
T1 construct: to construct His-Avi-hEPRS (998-1512) expression plasmid; His tag (N); Avi tag (N); TEV cleavage site (ENLYFQG, then S; inferred from the forward primer hEPRS-TEV-NheF) (N); made in house; host or cells: E. coli BL21(DE3)
T1 sequence (P07814 998-1512 limits assumed): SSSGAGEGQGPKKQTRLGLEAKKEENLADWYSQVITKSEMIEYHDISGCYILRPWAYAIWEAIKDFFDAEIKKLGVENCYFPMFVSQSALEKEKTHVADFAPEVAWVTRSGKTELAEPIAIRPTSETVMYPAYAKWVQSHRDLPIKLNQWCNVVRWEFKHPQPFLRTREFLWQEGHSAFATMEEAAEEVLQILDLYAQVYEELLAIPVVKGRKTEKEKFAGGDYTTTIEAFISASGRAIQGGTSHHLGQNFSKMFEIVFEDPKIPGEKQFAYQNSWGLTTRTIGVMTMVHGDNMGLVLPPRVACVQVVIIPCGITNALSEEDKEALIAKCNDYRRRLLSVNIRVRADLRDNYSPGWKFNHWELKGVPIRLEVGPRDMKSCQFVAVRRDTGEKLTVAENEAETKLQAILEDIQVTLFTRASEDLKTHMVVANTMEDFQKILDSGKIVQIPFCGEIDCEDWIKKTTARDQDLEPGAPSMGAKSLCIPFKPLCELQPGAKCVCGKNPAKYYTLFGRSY
Method: The PRS inhibitory activity of the compounds of the present invention was evaluated by the following method.
An expression plasmid of Catalytic Domain of human EPRS was obtained by PCR using human skeletal muscle cDNA Library (Takara Bio Inc.) as a template and 2 kinds of Primers 5′-[…]-3′ (hEPRS-TEV-NheF) (SEQ ID NO: 1) and 5′-[…]-3′ (hEPRS-St-Not-R) (SEQ ID NO: 2). PCR was performed using PrimeStar GXL DNA Polymerase (Takara Bio Inc.) and included (1) 98° C., 1 min, (2) 35 cycles of 98° C., 10 sec, 65° C., 10 sec, 72° C., 1 min, and (3) reaction at 72° C., 1 min. This was cleaved with Nhe I and Not I (Takara Bio Inc.) and inserted using Ligation High (TOYOBO CO., LTD.) into the Nhe I/Not I site of pET21a (Novagen) with His-Avitag inserted thereinto. This was introduced into ECOS JM109 (NIPPON GENE CO., LTD.) to construct His-Avi-hEPRS (998-1512) expression plasmid.
Recombinant human PRS protein was prepared by transforming the His-Avi-hEPRS (998-1512) expression plasmid prepared above into ECOS Competent E. coli BL21(DE3) (NIPPON GENE CO., LTD.). Escherichia coli obtained by transformation was inoculated into 300 mL of LB medium (1% peptone, 0.5% yeast extract, 0.5% sodium chloride, 0.01% ampicillin) and cultured at 30° C. for 16 hr. The obtained culture medium was transferred into a jar culture tank charged with 6 L of the main fermentation medium (0.3% potassium dihydrogen phosphate, 0.6% disodium hydrogen phosphate, 0.1% ammonium chloride, 0.05% sodium chloride, 0.024% magnesium sulfate, 0.02% NEWPOL LB-625, 1.5% sorbitol, 1.5% casamino acid, 0.5% yeast extract, 0.01% ampicillin) and culturing was started at 37° C., quantity of airflow 5 L/min, stirring rotating speed 400 rpm. At the time point when the turbidity of the culture medium reached about 550 Klett units, the culture temperature was lowered to 16° C., isopropyl-β-D-thiogalactopyranoside (IPTG) was added to the final concentration 0.1 mM, and culturing was performed for another 16 hr to induce expression of human PRS. After completion of culturing, the culture medium was centrifuged at 5,000 rpm for 10 min. The obtained human PRS expressing Escherichia coli was suspended in a buffer containing 50 mM Tris-HCl (pH 8.0), 150 mM NaCl, 1 mM DTT, 5 U/ml Benzonase, 20 mM Imidazole and sonicated using Sonifier (BRANSON). The homogenate was centrifuged (33,000×G, 60 min, Beckman Coulter), the obtained supernatant was subjected to adsorption by passage through Ni-NTA Superflow (QIAGEN) column equilibrated in advance with 50 mM Tris-HCl (pH 8.0), 300 mM NaCl, 1 mM DTT, and elution was performed with a buffer containing 50 mM Tris-HCl (pH 8.0), 300 mM NaCl, 1 mM DTT, 250 mM Imidazole. Furthermore, gel filtration was performed using Superdex200 pg column equilibrated in advance with a buffer containing 50 mM Tris-HCl (pH 8.0), 150 mM NaCl, 1 mM DTT, 10% glycerol to give purified human PRS protein. The protein concentration was measured using BCA Protein Assay Kit (PIERCE) and BSA as the standard.
A test compound was dissolved in 5 μL of an assay buffer (50 mM Tris-HCl (pH 7.5), 20 mM KCl, 1 mM DTT, 0.01% Tween 20) and incubated for 60 min with 5 μL of 40 nM human PRS protein dissolved in the assay buffer containing 40 mM MgCl2. An enzyme reaction of the human PRS protein was started by adding 10 μL of a substrate solution containing 300 μM ATP, 160 μM L-Proline, 400 μM pyrophosphate, [^32P]pyrophosphate (PerkinElmer) prepared to 1 MBq/mL. After incubation at room temperature for 30 min, the reaction was discontinued by adding 50 μL of discontinuation/washing solution (1M HCl, 200 mM sodium pyrophosphate) to the reaction mixture. The reaction solution was transferred to a filter plate (Merck Millipore, Billerica, Mass.) previously added with 200 μL of charcoal solution (0.5% HCl solution containing 10% charcoal (w/v)). […]

In the case of `Cn1cc(-c2cc(F)cc(CNC(=O)c3ncnc4nc(C5COCCO5)[nH]c34)c2)cn1` (stereo not drawn) [Example 33, 8-(1,4-dioxan-2-yl)-N-(3-fluoro-5-(1-methyl-1H-pyrazol-4-yl)benzyl)-7H-purine-6-carboxamide], the “inhibitory rate (%) of PRS” value is reported as 99%.
With `Cn1cc(-c2cc(F)cc(CNC(=O)c3ncnc4nc(C5COCCO5)[nH]c34)c2)cn1` (stereo not drawn) [Example 34, 8-(1,4-dioxan-2-yl)-N-(3-fluoro-5-(1-methyl-1H-pyrazol-4-yl)benzyl)-7H-purine-6-carboxamide] the “inhibitory rate (%) of PRS” value was 101%.

same assay, conditions: 300 nM test compound; read-out: inhibitory rate (%) of PRS

First: COc1c(F)cc(-c2cnn(C)c2)cc1CNC(=O)c1ncnc2nc(C3CCCC3)n(C)c12 [Example 6, 8-cyclopentyl-N-(3-fluoro-2-methoxy-5-(1-methyl-1H-pyrazol-4-yl)benzyl)-7-methyl-7H-purine-6-carboxamide]
Second: Cn1ncc2cccc(CNC(=O)c3ncnc4nc(C5CCCC5)n(C)c34)c21 [Example 21, 8-cyclopentyl-7-methyl-N-((1-methyl-1H-indazol-7-yl)methyl)-7H-purine-6-carboxamide]
The inhibition at 0.3 µM of the first is lower: 79% for the first, 92% for the second.

Going from `Cn1cc(-c2cc(F)cc(CNC(=O)c3nc(Cl)nc4nc(C5CCCC5)[nH]c34)c2)cn1` [Example 12, 2-chloro-8-cyclopentyl-N-(3-fluoro-5-(1-methyl-1H-pyrazol-4-yl)benzyl)-7H-purine-6-carboxamide] to `Cc1nc(C(=O)NCc2cc(F)cc(-c3cnn(C)c3)c2)c2[nH]c(C3CCCC3)nc2n1` [Example 13, 8-cyclopentyl-N-(3-fluoro-5-(1-methyl-1H-pyrazol-4-yl)benzyl)-2-methyl-7H-purine-6-carboxamide], the inhibition at 0.3 µM rises from 77% to 86%.

First: Cn1cc(-c2cc(F)cc(CNC(=O)c3ncnc4nc(C5CCS(=O)(=O)C5)[nH]c34)c2)cn1 (stereo not drawn) [Example 28, 8-(1,1-dioxidotetrahydrothiophen-3-yl)-N-(3-fluoro-5-(1-methyl-1H-pyrazol-4-yl)benzyl)-7H-purine-6-carboxamide]
Second: CC(C)c1nc2ccnc(C(=O)NCc3cc(F)cc(-c4cnn(C)c4)c3)c2[nH]1 [Example 99, N-(3-fluoro-5-(1-methyl-1H-pyrazol-4-yl)benzyl)-2-isopropyl-3H-imidazo[4,5-c]pyridine-4-carboxamide]
The inhibition at 0.3 µM of the first is higher: 101% for the first, 96% for the second.

`O=C(NCc1cccc(Br)c1)c1nccc2nc(C3CCCC3)[nH]c12` [Example 82, N-(3-bromobenzyl)-2-cyclopentyl-3H-imidazo[4,5-c]pyridine-4-carboxamide] and `O=C(NCc1cccc(-c2ccccc2)c1)c1nccc2nc(C3CCCC3)[nH]c12` [Example 83, N-(biphenyl-3-ylmethyl)-2-cyclopentyl-3H-imidazo[4,5-c]pyridine-4-carboxamide] are the same in inhibition at 0.3 µM: 98% for the first, 98% for the second.

Going from `Cn1c(C2CCCC2)nc2ccnc(C(=O)NCc3ccccc3Cl)c21` [Example 85, N-(2-chlorobenzyl)-2-cyclopentyl-3-methyl-3H-imidazo[4,5-c]pyridine-4-carboxamide] to `CC1(c2nc3ccnc(C(=O)NCc4ccccc4Cl)c3[nH]2)CCCC1` [Example 87, N-(2-chlorobenzyl)-2-(1-methylcyclopentyl)-3H-imidazo[4,5-c]pyridine-4-carboxamide], the inhibition at 0.3 µM falls from 97% to 74%.

Going from `Cn1ncc2c(CNC(=O)c3nccc4nc(C5CCCC5)[nH]c34)cccc21` [Example 93, 2-cyclopentyl-N-((1-methyl-1H-indazol-4-yl)methyl)-3H-imidazo[4,5-c]pyridine-4-carboxamide] to `Cn1cc(-c2cc(CNC(=O)c3nccc4nc(C5CCCC5)n(C)c34)ccn2)cn1` [Example 136, 2-cyclopentyl-3-methyl-N-((2-(1-methyl-1H-pyrazol-4-yl)pyridin-4-yl)methyl)-3H-imidazo[4,5-c]pyridine-4-carboxamide], the inhibition at 0.3 µM falls from 91% to 77%.

Going from `Cn1cc(-c2cc(F)cc(CNC(=O)c3nccc4nc(C5CCCC5)n(C5CC5)c34)c2)cn1` [Example 108, 2-cyclopentyl-3-cyclopropyl-N-(3-fluoro-5-(1-methyl-1H-pyrazol-4-yl)benzyl)-3H-imidazo[4,5-c]pyridine-4-carboxamide] to `Cn1cc(-c2cc(F)cc(CNC(=O)c3nccc4nc(C5CCCC5)n(CC5CC5)c34)c2)cn1` [Example 114, 2-cyclopentyl-3-(cyclopropylmethyl)-N-(3-fluoro-5-(1-methyl-1H-pyrazol-4-yl)benzyl)-3H-imidazo[4,5-c]pyridine-4-carboxamide], the inhibition at 0.3 µM falls from 102% to 101%.

Compared with `Cn1cc(-c2cc(F)cc(CNC(=O)c3nccc4nc(C5CCCC5)n(Cc5ccccc5)c34)c2)cn1` [Example 123, 3-benzyl-2-cyclopentyl-N-(3-fluoro-5-(1-methyl-1H-pyrazol-4-yl)benzyl)-3H-imidazo[4,5-c]pyridine-4-carboxamide], `Cn1cc(-c2ccnc(CNC(=O)c3nccc4nc(C5CCCC5)n(C)c34)n2)cn1` [Example 146, 2-cyclopentyl-3-methyl-N-((4-(1-methyl-1H-pyrazol-4-yl)pyrimidin-2-yl)methyl)-3H-imidazo[4,5-c]pyridine-4-carboxamide] is higher in inhibition at 0.3 µM: 69% for the first, 78% for the second.

Going from `Cn1cc(-c2cc(F)cc(CNC(=O)c3cc(N4CC[C@@](C#N)(C5CC5)C4=O)ccn3)c2)cn1` [Example 149, 4-((3S)-3-cyano-3-cyclopropyl-2-oxopyrrolidin-1-yl)-N-(3-fluoro-5-(1-methyl-1H-pyrazol-4-yl)benzyl)pyridine-2-carboxamide] to `Cn1cc(-c2cc(F)cc(CNC(=O)c3cc(N4CC[C@@](C#N)(C5CC5)C4=O)ccn3)c2)ccc1=O` [Example 150, 4-((3S)-3-cyano-3-cyclopropyl-2-oxopyrrolidin-1-yl)-N-(3-fluoro-5-(1-methyl-6-oxo-1,6-dihydropyridin-3-yl)benzyl)pyridine-2-carboxamide], the inhibition at 0.3 µM falls from 95% to 87%.

Work on `Cn1cc(-c2csc(CNC(=O)c3cc(N4CC[C@@](C#N)(C5CC5)C4=O)ccn3)c2)cn1` [Example 157, 4-((3S)-3-cyano-3-cyclopropyl-2-oxopyrrolidin-1-yl)-N-((4-(1-methyl-1H-pyrazol-4-yl)-2-thienyl)methyl)pyridine-2-carboxamide] yielded an inhibition at 0.3 µM of 85%.
